From the NIST ThermoML archive (doi:10.1016/j.jct.2016.03.034)

Experiment: xn = mol fraction of the nth substance listed
Details: 100 kPa, Liquid; for viscosity: Capillary tube (Ostwald / Ubbelohde) method; for mass density: Vibrating tube method

O=C1CCCO1 [γ-butyrolactone] + CCCCCCCCn1cc[n+](C)c1.O=S(=O)([N-]S(=O)(=O)C(F)(F)F)C(F)(F)F
Details | mass density [kg/m3] | viscosity [mPa·s]
293.15 K, x2 = 0 | 1129.49 | 1.86
293.15 K, x2 = 0.0486 | 1168.04 | 2.77
293.15 K, x2 = 0.1001 | 1197.81 | 4
293.15 K, x2 = 0.1497 | 1219.5 | 5.49
293.15 K, x2 = 0.2006 | 1237.06 | 7.48
293.15 K, x2 = 0.3037 | 1262.89 | 12.83
293.15 K, x2 = 0.394 | 1278.72 | –
293.15 K, x2 = 0.4952 | 1292.01 | 29.29
293.15 K, x2 = 0.586 | 1300.99 | –
293.15 K, x2 = 0.7007 | 1309.94 | 54.57
293.15 K, x2 = 0.8081 | 1316.42 | –
293.15 K, x2 = 0.9003 | 1321 | 87.86
298.15 K, x2 = 0 | 1124.59 | 1.71
298.15 K, x2 = 0.0486 | 1163.25 | 2.53
298.15 K, x2 = 0.1001 | 1193.1 | 3.64
298.15 K, x2 = 0.1497 | 1214.96 | 4.9
298.15 K, x2 = 0.2006 | 1232.47 | 6.56
298.15 K, x2 = 0.3037 | 1258.37 | 10.89
298.15 K, x2 = 0.394 | 1274.26 | –
298.15 K, x2 = 0.4952 | 1287.58 | 23.62
298.15 K, x2 = 0.586 | 1296.61 | –
298.15 K, x2 = 0.7007 | 1305.54 | 42.86
298.15 K, x2 = 0.8081 | 1312.07 | –
298.15 K, x2 = 0.9003 | 1316.57 | 68
303.15 K, x2 = 0 | 1119.68 | 1.58
303.15 K, x2 = 0.0486 | 1158.47 | 2.31
303.15 K, x2 = 0.1001 | 1188.35 | 3.26
303.15 K, x2 = 0.1497 | 1210.25 | 4.41
303.15 K, x2 = 0.2006 | 1227.82 | 5.8
303.15 K, x2 = 0.3037 | 1253.81 | 9.44
303.15 K, x2 = 0.394 | 1269.73 | –
303.15 K, x2 = 0.4952 | 1283.09 | 19.3
303.15 K, x2 = 0.586 | 1292.14 | –
303.15 K, x2 = 0.7007 | 1301.1 | 34.7
303.15 K, x2 = 0.8081 | 1307.63 | –
303.15 K, x2 = 0.9003 | 1312.16 | 53.86
308.15 K, x2 = 0 | 1114.78 | 1.47
308.15 K, x2 = 0.0486 | 1153.69 | 2.12
308.15 K, x2 = 0.1001 | 1183.64 | 2.96
308.15 K, x2 = 0.1497 | 1205.57 | 3.97
308.15 K, x2 = 0.2006 | 1223.18 | 5.15
308.15 K, x2 = 0.3037 | 1249.22 | 8.26
308.15 K, x2 = 0.394 | 1265.2 | –
308.15 K, x2 = 0.4952 | 1278.6 | 16.57
308.15 K, x2 = 0.586 | 1287.67 | –
308.15 K, x2 = 0.7007 | 1296.66 | 28.87
308.15 K, x2 = 0.8081 | 1303.22 | –
308.15 K, x2 = 0.9003 | 1307.76 | 43.53
313.15 K, x2 = 0 | 1109.87 | 1.37
313.15 K, x2 = 0.0486 | 1148.89 | 1.96
313.15 K, x2 = 0.1001 | 1178.93 | 2.72
313.15 K, x2 = 0.1497 | 1200.87 | 3.61
313.15 K, x2 = 0.2006 | 1218.54 | 4.62
313.15 K, x2 = 0.3037 | 1244.66 | 7.27
313.15 K, x2 = 0.394 | 1260.67 | –
313.15 K, x2 = 0.4952 | 1274.11 | 13.95
313.15 K, x2 = 0.586 | 1283.2 | –
313.15 K, x2 = 0.7007 | 1292.22 | 23.79
313.15 K, x2 = 0.8081 | 1298.8 | –
313.15 K, x2 = 0.9003 | 1303.36 | 35.68
318.15 K, x2 = 0 | 1104.96 | 1.28
318.15 K, x2 = 0.0486 | 1144.1 | 1.82
318.15 K, x2 = 0.1001 | 1174.21 | 2.49
318.15 K, x2 = 0.1497 | 1196.2 | 3.23
318.15 K, x2 = 0.2006 | 1213.93 | 4.17
318.15 K, x2 = 0.3037 | 1240.09 | 6.47
318.15 K, x2 = 0.394 | 1256.15 | –
318.15 K, x2 = 0.4952 | 1269.61 | 12
318.15 K, x2 = 0.586 | 1278.74 | –
318.15 K, x2 = 0.7007 | 1287.82 | 19.85
318.15 K, x2 = 0.8081 | 1294.4 | –
318.15 K, x2 = 0.9003 | 1298.97 | 29.79
323.15 K, x2 = 0 | 1100.05 | 1.2
323.15 K, x2 = 0.0486 | 1139.34 | 1.69
323.15 K, x2 = 0.1001 | 1169.52 | 2.29
323.15 K, x2 = 0.1497 | 1191.56 | 2.95
323.15 K, x2 = 0.2006 | 1209.34 | 3.78
323.15 K, x2 = 0.3037 | 1235.56 | 5.8
323.15 K, x2 = 0.394 | 1251.63 | –
323.15 K, x2 = 0.4952 | 1265.15 | 10.5
323.15 K, x2 = 0.586 | 1274.3 | –
323.15 K, x2 = 0.7007 | 1283.4 | 16.69
323.15 K, x2 = 0.8081 | 1290.01 | –
323.15 K, x2 = 0.9003 | 1294.6 | 25.43
